Data taken from patent publication US8178668B2, “2-aminopyridine kinase inhibitors” (OSI Pharmaceuticals, LLC, priority 2008, dated 2012).
Structures can show the parent of a compound that is named as a salt.

Assays:
RON (human) = RON (human) (Homo sapiens, UniProt Q04912); test: RON kinase AlphaScreen assay (Km of ATP); format: biochemical; conditions: ATP at Km; at least duplicate experiments
Method in brief: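 Human RON phosphorylated biotinylated poly(Glu,Tyr) (200 ng/μL) at Km ATP in 50 mM HEPES pH 7.4, 12.5 mM MgCl2, 1% glycerol, 0.334 mM vanadate, 1% DMSO. Reaction ran 30 min at RT after enzyme addition. Product was detected by AlphaScreen with PT66 beads after 1 h.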

MET (human) = MET (human) (Homo sapiens, UniProt P08581); test: MET kinase AlphaScreen assay (Km of ATP); format: biochemical; conditions: ATP at Km; at least duplicate experiments
Method in brief: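 Biotinylated poly(Glu,Tyr) (200 ng/μL) phosphorylated by MET with ATP at an enzyme-optimized level, in 50 mM HEPES pH 7.4 with Mg2+/Mn2+ and vanadate, 1% DMSO. Reaction runs 60 min at RT. PT66 AlphaScreen donor/acceptor beads are added and signal is read after 1 h.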

Chain of RON (human) (Q04912 25-1400): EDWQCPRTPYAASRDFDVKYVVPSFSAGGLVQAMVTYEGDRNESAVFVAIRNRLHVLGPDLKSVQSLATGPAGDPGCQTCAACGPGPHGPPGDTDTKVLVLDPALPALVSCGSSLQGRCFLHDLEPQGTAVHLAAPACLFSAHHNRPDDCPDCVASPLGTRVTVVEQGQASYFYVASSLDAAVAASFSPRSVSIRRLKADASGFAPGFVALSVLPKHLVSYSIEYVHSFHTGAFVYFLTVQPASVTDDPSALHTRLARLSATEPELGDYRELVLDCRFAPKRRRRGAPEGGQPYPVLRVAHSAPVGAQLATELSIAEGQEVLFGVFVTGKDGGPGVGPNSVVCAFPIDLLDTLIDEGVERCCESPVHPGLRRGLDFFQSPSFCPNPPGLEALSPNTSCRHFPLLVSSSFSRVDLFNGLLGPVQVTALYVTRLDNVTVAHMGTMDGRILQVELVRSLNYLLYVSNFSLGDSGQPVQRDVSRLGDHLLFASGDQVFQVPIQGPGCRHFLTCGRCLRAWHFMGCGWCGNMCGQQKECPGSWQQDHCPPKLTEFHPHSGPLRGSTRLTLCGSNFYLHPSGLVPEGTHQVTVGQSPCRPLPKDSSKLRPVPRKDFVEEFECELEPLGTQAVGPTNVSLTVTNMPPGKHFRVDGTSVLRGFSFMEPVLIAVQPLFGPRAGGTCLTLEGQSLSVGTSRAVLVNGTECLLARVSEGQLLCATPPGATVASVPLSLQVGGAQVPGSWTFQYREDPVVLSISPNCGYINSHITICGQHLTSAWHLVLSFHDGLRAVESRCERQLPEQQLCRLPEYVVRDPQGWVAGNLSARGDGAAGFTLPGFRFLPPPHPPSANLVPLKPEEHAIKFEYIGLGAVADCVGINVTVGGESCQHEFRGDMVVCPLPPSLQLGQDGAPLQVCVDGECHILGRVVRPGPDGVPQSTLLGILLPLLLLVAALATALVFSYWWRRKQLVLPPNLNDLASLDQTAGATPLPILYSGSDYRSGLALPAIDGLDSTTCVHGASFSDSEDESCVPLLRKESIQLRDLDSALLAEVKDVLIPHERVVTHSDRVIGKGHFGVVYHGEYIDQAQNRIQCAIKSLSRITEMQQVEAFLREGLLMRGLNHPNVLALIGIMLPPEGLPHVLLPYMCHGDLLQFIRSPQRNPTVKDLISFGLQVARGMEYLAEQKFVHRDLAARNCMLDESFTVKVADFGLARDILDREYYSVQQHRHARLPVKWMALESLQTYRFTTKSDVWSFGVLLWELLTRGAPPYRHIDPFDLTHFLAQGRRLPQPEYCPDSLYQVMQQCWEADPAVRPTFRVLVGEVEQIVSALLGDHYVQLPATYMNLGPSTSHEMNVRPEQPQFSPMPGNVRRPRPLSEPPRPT
Chain of MET (human) (P08581 25-1390): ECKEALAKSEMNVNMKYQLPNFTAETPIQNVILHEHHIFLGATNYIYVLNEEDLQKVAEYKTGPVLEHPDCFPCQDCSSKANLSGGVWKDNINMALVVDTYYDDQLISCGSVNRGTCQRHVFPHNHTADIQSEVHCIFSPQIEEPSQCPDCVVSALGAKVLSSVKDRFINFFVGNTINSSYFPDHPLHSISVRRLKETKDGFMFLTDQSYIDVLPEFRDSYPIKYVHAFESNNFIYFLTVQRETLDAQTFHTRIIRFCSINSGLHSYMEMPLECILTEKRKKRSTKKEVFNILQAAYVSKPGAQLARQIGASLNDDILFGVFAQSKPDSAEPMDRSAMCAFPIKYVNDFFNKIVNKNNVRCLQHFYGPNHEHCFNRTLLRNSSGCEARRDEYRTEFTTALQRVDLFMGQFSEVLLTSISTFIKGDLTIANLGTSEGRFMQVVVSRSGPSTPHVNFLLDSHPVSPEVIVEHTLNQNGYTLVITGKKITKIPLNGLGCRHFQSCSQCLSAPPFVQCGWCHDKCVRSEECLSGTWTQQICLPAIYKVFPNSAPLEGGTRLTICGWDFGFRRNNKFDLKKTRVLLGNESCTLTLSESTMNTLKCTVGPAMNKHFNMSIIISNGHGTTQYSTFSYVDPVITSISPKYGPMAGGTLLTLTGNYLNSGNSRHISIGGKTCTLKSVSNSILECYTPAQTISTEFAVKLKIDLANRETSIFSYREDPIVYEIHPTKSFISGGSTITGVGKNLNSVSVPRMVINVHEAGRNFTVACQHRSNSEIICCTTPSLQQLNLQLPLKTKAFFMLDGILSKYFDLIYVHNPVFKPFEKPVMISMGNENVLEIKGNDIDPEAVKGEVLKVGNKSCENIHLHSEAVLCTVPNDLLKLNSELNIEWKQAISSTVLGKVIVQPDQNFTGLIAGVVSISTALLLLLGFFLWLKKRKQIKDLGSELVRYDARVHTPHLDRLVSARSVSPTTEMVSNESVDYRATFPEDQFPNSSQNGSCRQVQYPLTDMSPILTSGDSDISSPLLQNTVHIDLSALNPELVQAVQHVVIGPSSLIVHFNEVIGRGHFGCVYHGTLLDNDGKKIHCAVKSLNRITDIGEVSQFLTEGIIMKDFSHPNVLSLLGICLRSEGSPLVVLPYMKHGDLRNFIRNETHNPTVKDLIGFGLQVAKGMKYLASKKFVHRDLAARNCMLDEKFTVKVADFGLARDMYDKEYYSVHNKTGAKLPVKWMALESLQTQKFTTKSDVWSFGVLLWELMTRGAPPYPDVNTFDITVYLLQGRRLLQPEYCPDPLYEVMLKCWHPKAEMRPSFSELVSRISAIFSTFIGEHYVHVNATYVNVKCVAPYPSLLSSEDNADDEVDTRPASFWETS

IC50 (RON (human)) [nM]	IC50 (MET (human)) [nM]	SMILES
1000 to 20000	1000 to 20000	Cn1cc(-c2cnc(N)c(-c3cc4c(Cl)ccc(F)c4cn3)c2)cn1 [Example 65, 3-(5-Chloro-8-fluoroisoquinolin-3-yl)-5-(1-methyl-1H-pyrazol-4-yl)-pyridin-2-ylamine bis-hydrochloride]
1000 to 20000	1000 to 20000	CC(C)n1cc(-c2cnc(N)c(-c3cc4c(Cl)ccc(F)c4cn3)c2)cn1 [Example 66, 3-(5-Chloro-8-fluoroisoquinolin-3-yl)-5-(1-isopropyl-1H-pyrazol-4-yl)-pyridin-2-ylamine bis-hydrochloride]
100 to 1000	100 to 1000	CN(C)C(=O)N1CCC(n2cc(-c3cnc(N)c(-c4cc5c(Cl)ccc(F)c5cn4)c3)cn2)CC1 [Example 67, 4-4-[6-Amino-5-(5-chloro-8-fluoroisoquinolin-3-yl)-pyridin-3-yl]-pyrazol-1-ylpiperidine-1-carboxylic acid dimethylamide bis-hydrochloride]
100 to 1000	100 to 1000	NC(=O)N1CCC(n2cc(-c3cnc(N)c(-c4cc5c(Cl)ccc(F)c5cn4)c3)cn2)CC1 [Example 68, 4-4-[6-Amino-5-(5-chloro-8-fluoroisoquinolin-3-yl)-pyridin-3-yl]-pyrazol-1-ylpiperidine-1-carboxamide bis-hydrochloride]
1000 to 20000	1000 to 20000	Nc1ncc(-c2cnn(C3CCN(CC(F)(F)F)CC3)c2)cc1-c1cc2c(Cl)ccc(F)c2cn1 [Example 69, 3-(5-Chloro-8-fluoroisoquinolin-3-yl)-5-1-[1-(2,2,2-trifluoroethyl)-piperidin-4-yl]-1H-pyrazol-4-yl-pyridin-2-ylamine bis-hydrochloride]
1000 to 20000	100 to 1000	COCCN1CCC(n2cc(-c3cnc(N)c(-c4cc5c(Cl)ccc(F)c5cn4)c3)cn2)CC1 [Example 70, 3-(5-Chloro-8-fluoroisoquinolin-3-yl)-5-1-[1-(2-methoxyethyl)-piperidin-4-yl]-1H-pyrazol-4-yl-pyridin-2-ylamine]
100 to 1000	≤ 100	CN(C)C(=O)[C@@H]1C[C@H](n2cc(-c3cnc(N)c(-c4cc5c(Cl)ccc(F)c5cn4)c3)cn2)CN1 [Example 71, (2S,4S)-4-{4-[6-Amino-5-(5-chloro-8-fluoroisoquinolin-3-yl)-pyridin-3-yl]-pyrazol-1-yl}-pyrrolidine-2-carboxylic acid dimethylamide]
100 to 1000	≤ 100	Nc1ncc(-c2cnn([C@@H]3CN[C@H](C(=O)N4CCOCC4)C3)c2)cc1-c1cc2c(Cl)ccc(F)c2cn1 [Example 72, ((2S,4S)-4-{4-[6-Amino-5-(5-chloro-8-fluoroisoquinolin-3-yl)-pyridin-3-yl]-pyrazol-1-yl}-pyrrolidin-2-yl)-morpholin-4-ylmethanone]
100 to 1000	100 to 1000	Nc1ncc(-c2cnn([C@@H]3CN[C@H](C(=O)N4CCCC4)C3)c2)cc1-c1cc2c(Cl)ccc(F)c2cn1 [Example 73, ((2S,4S)-4-{4-[6-Amino-5-(5-chloro-8-fluoroisoquinolin-3-yl)-pyridin-3-yl]-pyrazol-1-yl}-pyrrolidin-2-yl)-pyrrolidin-1-ylmethanone]
1000 to 20000	1000 to 20000	COCCNC(=O)[C@@H]1C[C@H](n2cc(-c3cnc(N)c(-c4cc5c(Cl)ccc(F)c5cn4)c3)cn2)CN1 [Example 74, (2S,4S)-4-{4-[6-Amino-5-(5-chloro-8-fluoroisoquinolin-3-yl)-pyridin-3-yl]-pyrazol-1-yl}-pyrrolidine-2-carboxylic acid (2-methoxyethyl)-amide]
> 20000	> 20000	Nc1ncc(-c2ccsc2)cc1-c1cc2c(Cl)ccc(F)c2cn1 [Example 76, 3-(5-Chloro-8-fluoroisoquinolin-3-yl)-5-thiophen-3-ylpyridin-2-amine]
> 20000	> 20000	Nc1ncc(-c2ccccc2)cc1-c1cc2c(Cl)ccc(F)c2cn1 [Example 77, 3-(5-Chloro-8-fluoroisoquinolin-3-yl)-5-phenylpyridin-2-amine]
1000 to 20000	1000 to 20000	Nc1ncc(-c2cccnc2)cc1-c1cc2c(Cl)ccc(F)c2cn1 [Example 78, 5-(5-Chloro-8-fluoroisoquinolin-3-yl)-3,3′-bipyridin-6-amine]
1000 to 20000	1000 to 20000	Nc1ncc(-c2ccncc2)cc1-c1cc2c(Cl)ccc(F)c2cn1 [Example 79, 5-(5-Chloro-8-fluoroisoquinolin-3-yl)-3,4′-bipyridin-6-amine]
1000 to 20000	1000 to 20000	Nc1ccc(-c2cnc(N)c(-c3cc4c(Cl)ccc(F)c4cn3)c2)cn1 [Example 81, 5-(5-Chloro-8-fluoroisoquinolin-3-yl)-3,3′-bipyridine-6,6′-diamine]
> 20000	1000 to 20000	CC(=O)Nc1ccc(-c2cnc(N)c(-c3cc4c(Cl)ccc(F)c4cn3)c2)cc1 [Example 82, N-4-[6-Amino-5-(5-chloro-8-fluoroisoquinolin-3-yl)pyridin-3-yl]phenylacetamide]

IC50 (RON (human)) [nM]	IC50 (MET (human)) [nM]	SMILES
1000 to 20000	1000 to 20000	CCOC(=O)COc1ccc(-c2cnc(N)c(-c3cc4c(Cl)ccc(F)c4cn3)c2)cc1 [Example 83, Ethyl-[4-(6-amino-5-(5-chloro-8-fluoroisoquinolin-3-yl)pyridin-3-yl)phenoxy]acetate]
1000 to 20000	1000 to 20000	Nc1ncc(-c2ccc(O)nc2)cc1-c1cc2c(Cl)ccc(F)c2cn1 [Example 84, 6′-Amino-5′-(5-chloro-8-fluoroisoquinolin-3-yl)-3,3′-bipyridin-6-ol]
> 20000	1000 to 20000	Nc1ncc(-c2ccoc2)cc1-c1cc2c(Cl)ccc(F)c2cn1 [Example 85, 3-(5-Chloro-8-fluoroisoquinolin-3-yl)-5-furan-3-ylpyridin-2-amine]
> 20000	1000 to 20000	Nc1ncc(-c2ccco2)cc1-c1cc2c(Cl)ccc(F)c2cn1 [Example 86, 3-(5-Chloro-8-fluoroisoquinolin-3-yl)-5-furan-2-ylpyridin-2-amine]
1000 to 20000	1000 to 20000	Nc1ncc(-c2cn[nH]c2)cc1-c1cc2c(Cl)ccc(F)c2cn1 [Example 87, 3-(5-Chloro-8-fluoroisoquinolin-3-yl)-5-(1H-pyrazol-4-yl)pyridin-2-amine]
1000 to 20000	1000 to 20000	Nc1ncc(-c2ccc(NCCN3CCOCC3)nc2)cc1-c1cc2c(Cl)ccc(F)c2cn1 [Example 88, 3-(5-Chloro-8-fluoroisoquinolin-3-yl)-5-N6′-(2-morpholin-4-ylethyl)-3,3′-bipyridine-6,6′-diamine]
1000 to 20000	1000 to 20000	Nc1ncc(-c2cc3ccccc3[nH]2)cc1-c1cc2c(Cl)ccc(F)c2cn1 [Example 89, 3-(5-Chloro-8-fluoroisoquinolin-3-yl)-5-(1H-indol-2-yl)pyridin-2-amine]
100 to 1000	100 to 1000	COc1ccc(Cl)c2cc(-c3cc(-c4ccc(C(=O)O)cc4)cnc3N)ncc12 [Example 90, 4-[6-Amino-5-(5-chloro-8-methoxyisoquinolin-3-yl)-pyridin-3-yl]benzoic acid]
> 20000	> 20000	COc1ccc(Cl)c2cc(-c3cc(-c4cccc(C(=O)O)c4)cnc3N)ncc12 [Example 91, 3-[6-Amino-5-(5-chloro-8-methoxyisoquinolin-3-yl)-pyridin-3-yl]benzoic acid]
1000 to 20000	100 to 1000	Nc1ncc(-c2cnn(C3CCNCC3)c2)cc1-c1cc2ccccc2o1 [Example 92, 3-Benzofuran-2-yl-5-(1-piperidin-4-yl-1H-pyrazol-4-yl)-pyridin-2-ylamine dihydrochloride]
100 to 1000	100 to 1000	Nc1ncc(-c2cnn(C3CCNCC3)c2)cc1-c1oc2ccccc2c1Cl [Example 93, 3-(3-Chlorobenzofuran-2-yl)-5-(1-piperidin-4-yl-1H-pyrazol-4-yl)-pyridin-2-ylamine dihydrochloride]
1000 to 20000	100 to 1000	Cc1c(-c2cc(-c3cnn(C4CCNCC4)c3)cnc2N)oc2ccccc12 [Example 94, 3-(3-Methylbenzofuran-2-yl)-5-(1-piperidin-4-yl-1H-pyrazol-4-yl)pyridin-2-ylamine bishydrochloride]
1000 to 20000	1000 to 20000	Nc1ncc(-c2cnn(C3CCNCC3)c2)cc1-c1oc2ccccc2c1Br [Example 95, 3-(3-Bromobenzofuran-2-yl)-5-(1-piperidin-4-yl-1H-pyrazol-4-yl)-pyridin-2-ylamine trifluoroacetate]
1000 to 20000	1000 to 20000	Nc1ncc(-c2cnn(C3CCNCC3)c2)cc1-c1oc2ccccc2c1-c1ccccc1 [Example 96, 3-(3-Phenylbenzofuran-2-yl)-5-(1-piperidin-4-yl-1H-pyrazol-4-yl)pyridine-2-ylamine]
1000 to 20000	100 to 1000	Nc1ncc(-c2cnn(C3CCNCC3)c2)cc1-c1oc2ccccc2c1-c1cccc(Cl)c1F [Example 97, 3-[3-(3-Chloro-2-fluorophenyl)benzofuran-2-yl]-5-(1-piperidin-4-yl-1H-pyrazol-4-yl)pyridine-2-ylamine]

SMILES	IC50 (RON (human)) [nM]	IC50 (MET (human)) [nM]
CN1C2CCC1CC(n1cc(-c3cnc(N)c(-c4cc5c(Cl)ccc(F)c5cn4)c3)cn1)C2 (stereo not drawn) [Example 64, 3-(5-Chloro-8-fluoroisoquinolin-3-yl)-5-[1-(8-methyl-8-azabicyclo [3.2.1]-oct-3-yl)-1H-pyrazol-4-yl]-pyridin-2-ylamine]	100 to 1000	100 to 1000
CC(C)(C)OC(=O)N1CC=C(c2cnc(N)c(-c3cc4c(Cl)ccc(F)c4cn3)c2)CC1 [Example 80]	1000 to 20000	1000 to 20000
